According to patent publication US9649303B2, “Methods and treatment for allergies and inflammation associated with gastrointestinal diseases” (MASTCELL PHARMACEUTICALS, INC., priority 2008, dated 2017):

Tests used:
[1] = test system: OVA sensitized female BALB/c mice; assay: Sensitization to new allergen in a model of pre-existing food allergy (Example 6); format: in vivo
Experimental: A study is conducted to determine whether atopic animals are more easily sensitized to a newly introduced allergen (e.g., hazel nut). Four groups of female BALB/c mice (7-8 weeks old) are sensitized by intraperitoneal (IP) injections 2 weeks apart with ovalbumin (OVA; 50 μg) in 1.3% aluminum hydroxide (200 μl) followed 2 weeks later by 7 seven intragastric challenges (every other day) with saline or 5, 10, or 50 mg OVA, a selected dose of hazel nut, or combination of OVA and hazelnut. Endpoints include observance of diarrhea after intragastric challenge, Serum total and antigen specific IgE and IgG 1, gut to body weight ratio, intestinal permeability, and histological evaluation are performed. […] A second experiment assesses the ability of ketotifen to inhibit the induction of allergy to a newly introduced food allergen in animals with a pre-existing gastrointestinal allergy. […] A group of BALB/c mice similarly sensitized to OVA, but continuing to receive intragastric hazel nut in the absence of intragastric OVA fails to develop an observable gastrointestinal allergy phenotype.

eosinophils = conditions: cited from earlier work
[2] = test system: patients undergoing desensitization to airborne allergen (ragweed); assay: One-day rush immunotherapy with short ragweed extract after ketotifen or placebo pretreatment (Example 2); format: in vivo, human; conditions: ketotifen 1 mg b.i.d. plus ragweed immunotherapy vs immunotherapy alone
Experimental: To evaluate the effectiveness of mast cell stabilizer, e.g., ketotifen, in desensitization or immunotherapy, particularly RUSH immunotherapy, a randomized, double-blind, placebo-controlled study is performed. Patients are randomly assigned to 4 treatment groups (1:1:1:1). Pretreatment with either ketotifen, 1 mg, b.i.d., or placebo, is carried out for nine weeks to protect, prevent, inhibit or ameliorate allergic reaction, particularly to prevent, normalize or ameliorate gastrointestinal symptoms. One-day rush immunotherapy (week 0) is completed at least 3 weeks before the start of the ragweed season. On the day of rush immunotherapy, the patients receive 6 injections of either placebo or aqueous short ragweed extract. Ragweed dosing starts with a diluted extract containing 0.012 μg of Amb a 1 (a major allergen in ragweed) over a 3-hour period, reaching a maximum of 1.2 μg of Amb a 1. […]
The efficacy end point is determined by comparing the average daily allergy severity scores (measured on a scale of 0-3) between patients receiving ketotifen plus immunotherapy versus those who receive just immunotherapy alone. The score is calculated from the average of individual scores for symptoms of gastrointestinal disorders, e.g., abdominal pain, nausea, diarrhea, and/or heartburn.

[3] = test system: patients undergoing desensitization to oral allergen (hazelnut); assay: Desensitization to oral allergen with hazelnut extract plus ketotifen (Example 3); format: in vivo, human; conditions: ketotifen plus hazelnut extract immunotherapy vs immunotherapy alone
Source text: To evaluate the efficacy of ketotifen in desensitization process against oral allergen such as hazelnut, a similar study as described in Example […] may be carried out except with the use of hazelnut extract rather than ragweed extract.

PAF production = conditions: cited from earlier work
[4] = test system: patients who have a history of GERD, unresponsive to conventional proton pump inhibitors or antacids; assay: GERD patients unresponsive to proton pump inhibitors or antacids: ketotifen vs omeprazole (Example 5); format: in vivo, human; conditions: ketotifen 0.5 mg, 1 mg, 2 mg twice daily or omeprazole 1×20 mg/d
Experimental: To evaluate the effectiveness of ketotifen in patients who have a history of GERD, but are unresponsive to conventional proton pump inhibitors or antacids, two groups of patients are tested as similar to Example 4. One group is administered ketotifen at 0.5 mg, 1 mg, 2 mg, twice daily. The second group is treated with omeprazole, 1×20 mg/d. Sera IgE are evaluated before and after administration of ketotifen or omeprazole and gastrointestinal symptoms are recorded based on severity and frequency of symptoms.

[5] = test system: patients with a history of hazelnut allergy; assay: Oral food challenge with hazelnut flour under ketotifen or placebo (Example 1); format: in vivo, human
Experimental: Twenty-four patients with adverse food reaction are included in this study. As controls, twelve patients matched for age and gender and a history of GERD (Group A) and another twelve patients matched for age and gender and no history of any gastrointestinal disorder (Group B) are included. The history of use of antacids and satisfaction are recorded for both groups.
To analyze hypersensitivity to hazelnut, a double-blind, randomized, dose-ranging study is carried out with patients with a history of hazelnut allergy manifested by urticaria, angioedema, respiratory tract symptoms or hypotension generally using the methods described in Israel et al., Am. J. Respir. Crit. Care Med., (2000) 164:75-80. Eligible patients include those with serum total IgE level of 30-1000 IU/mL and/or a positive skin-prick test to hazelnut. […]
Before enrollment, threshold level for reactivity to hazelnut allergen is confirmed by a screening double-blind, placebo-controlled oral food challenge. […] Vital signs are checked, chest auscultation is performed, and peak expiratory flow rates are monitored every 30 minutes during the food challenge and for at least 2 hours after the last dose or the abatement of any symptoms or signs. […]
Peak expiratory flow rates are monitored every 30 minutes during food challenge for at least 2 hours after the last does or abatement of any symptoms or signs. […]

[6] = test system: patients who have a diagnosis of eosinophilic esophagitis and food allergy; assay: Eosinophilic esophagitis: ketotifen oral tablet vs topical gel (Example 7); format: in vivo, human
Experimental: To evaluate the effectiveness of ketotifen in patients who have a diagnosis of eosinophilic esophagitis and food allergy, two groups of patients will be tested. One group is orally administered ketotifen at 0.5 mg, 1 mg, or 2 mg, twice daily as a tablet.

[7] = test system: adult patients who have a history of GERD; assay: GERD patients on omeprazole, ketotifen or both: GI symptoms and allergen-specific serum IgE (Example 4); format: in vivo, human
Experimental: The following study may be carried out to analyze the effectiveness of mast cell stabilizer in treating gastrointestinal disorders and/or as a prophylaxis against the development of allergy in patients at risk of developing sensitivity to such allergen, e.g., sensitivity to hazelnut, when exposed to it.
Sera of nine adult patients who have a history of GERD are collected. None of the patients report adverse reactions to inhalant or food allergens; however, IgE immunoblots are performed to screen their allergic state. Three patients from Group A are administered a proton pump inhibitor, e.g, omeprazole (Group A-1). Three patients from Group A are administered an oral dose of 0.5, 1, or 2 mg of ketotifen orally twice daily (Group A-2). […]
Serum IgE and Skin Tests in Patients: Sera are tested for allergen-specific IgE against hazelnut and inhalative allergens from tree pollen (eg, birch, hazel, and alder), grass pollen, weed pollen, molds, house dust mites, insect venoms, and animal dander. […] Additionally, total IgE is determined before and at the 3-mo time point. […]
Gastrointestinal Symptoms: Symptoms of gastrointestinal side effects such as GERD, nausea, abdominal pain, vomiting, gastritis and/or dyspepsia are recorded based on the severity and frequency of the symptoms. […]

[8] = test system: a patient with eosinophilic esophagitis; conditions: elimination of diet including eggs, treatment with ketotifen and montelukast; cited from earlier work
[9] = test system: sensitization to previously tolerated ovalbumin; conditions: co-administered with ovalbumin; via elevation of the gastric pH; cited from earlier work

CN1CCC(=C2c3ccccc3CC(=O)c3sccc32)CC1 [ketotifen]
development of new sensitivity to hazel nut ([1]; OVA sensitized mice receiving intragastric hazelnut with ketotifen or OVA plus hazelnut with ketotifen): fail to develop new sensitivity to hazel nut | gastrointestinal allergy phenotype upon OVA intragastric challenge ([1]; female BALB/c mice sensitized to OVA): significantly suppresses the gastrointestinal allergy phenotype | eosinophil chemotaxis (eosinophils): inhibiting chemotaxis | adverse events of gastrointestinal disorders [2]: fewer adverse events of gastrointestinal disorders | allergy severity scores ([2]; scale of 0-3): significantly improved allergy severity scores | adverse events of gastrointestinal disorders [3]: fewer adverse events of gastrointestinal disorders | allergy severity scores [3]: significantly improved allergy severity scores | PAF production (PAF production): suppresses PAF production | GERD symptoms [4]: improved GERD symptoms | allergen specific IgE in blood sera [4]: few new allergen specific IgE | reflux symptom reporting during the study ([5]; GERD patients, Group A1 (ketotifen) vs Group A2 (placebo)): significantly lower | tolerance (severity of reaction) to hazelnut upon oral ingestion ([5]; ketotifen 0.5, 1 or 2 mg orally twice daily, Group A-1 and B-1 compared to placebo groups A-2 and B-2, challenge at two, four and six weeks): significant increased tolerance | patient-reported symptoms ([6]; ketotifen 0.5 mg, 1 mg or 2 mg twice daily as oral tablet): partial improvement of symptoms | overall effectiveness compared between formulations ([6]; oral tablet vs topical gel vs topical corticosteroids): inferior to those observed with the topical gel formulation | blood eosinophilia ([6]; oral tablet, blood analysis): decreased eosinophilia | eosinophils, mast cells and degranulation in esophageal biopsies ([6]; oral tablet, compared to pre-treatment biopsies): fewer numbers of eosinophils and mast cells and less degranulation | hazelnut-specific (and other allergen specific) IgE in blood sera ([7]; after onset of treatment, Groups A-1, A-2, A-3): improved GERD symptoms and hazelnut-specific IgE | GERD symptoms ([7]; omeprazole 1×20 mg/d (A-1), ketotifen 0.5, 1 or 2 mg orally twice daily (A-2), both (A-3)): improved GERD symptoms | clinical outcome [8]: clinical relief

sucralfate
sensitization to previously tolerated ovalbumin [9]: caused sensitization to previously tolerated ovalbumin
